Source: patent US6596863B2, “Medical composition containing nitroetheneamine Derivative or salt there of as active constituent” (Ishihara Sangyo Kaisha, Ltd., priority 1998, dated 2003)
Like-named read-outs stand apart in the source and are kept apart here.

How the values were obtained:
[1] = target: T1, human MMP-9 (gelatinase B) (Homo sapiens, UniProt P14780); test: Inhibition activity against human MMP-9 (gelatinase B), fluorescent peptide substrate; format: biochemical
T1 construct: endogenous in cells; host or cells: HT1080 human fibrosarcoma cells (ATCC CCL-121), PMA-stimulated; enzyme purified from the culture supernatant
Experimental: Human MMP-9 (gelatinase B) was purified by the following method from a culture supernatant of HT1080 cells (human fibrosarcoma).
2.5×10^6 HT1080 cells (ATCC CCL-121, purchased from Dainippon Seiyaku) were inoculated to a tissue culture dish (Code No. 3020-100, manufactured by Iwaki Glass Co., Ltd.) having a diameter of 10 cm and containing 10 ml of Dulbecco's Modified Eagle Medium (DME, No. D-5648, manufactured by Sigma Co.) containing 10% fetal bovine serum (FBS: REHATUIN™, Code No. 1020-90, manufactured by Intergen Co.) and cultured for 72 hours at 37° C. in an atmosphere comprising 5% of CO2 and 95% of air (Carbon Dioxide Incubator LNA-122D Model, manufactured by Tabai Co.). Then, the medium was changed to 10 ml of a DME culture medium containing no FBS, and phorbol 12-myristate 13-acetate (PMA, code No. 163-114851, manufactured by Wako Pure Chemical Industries, Ltd.) was added so that the final concentration became 10 ng/ml. Under the same conditions, the culturing was carried out for further 20 hours, whereupon the culture supernatant was collected and subjected to cool centrifugation at 4° C. for 5 minutes (cool centrifugal separator, manufactured by Hitachi) to remove cell fragments.
The pH of a conditioned medium (50 ml) containing MMP-9, thus prepared, was adjusted to 8.0 with 0.2N NaOH. […] Namely, the above-mentioned conditioned medium was passed through DEAE-Sephacel (manufactured by Pharmacia, gel volume: about 35 ml) preliminarily equilibrated with 50 mM Tris-HCl, pH 8.0 (A buffer), and a non-adsorption fraction was collected. Then, it was added to Dye Matrix Gel Green A (manufactured by Amicon Co., gel volume: about 6 ml) preliminarily equilibrated with 50 mM Tris-HCl, pH 7.5/10 MM CaCl2/0.05% Brij 35/0.02% NaN3 (B buffer) and thoroughly washed with the same buffer, whereupon the adsorbed enzyme was eluted with a 1M NaCl-containing B buffer. About 7.5 ml of the eluted fraction was diluted twice with the B buffer and added to Gelatin-Sepharose 4B (manufactured by Pharmacia, gel volume: about 6 ml) preliminarily equilibrated with a 0.5 M NaCl-containing B buffer. It was thoroughly washed with a 0.5M NaCl-containing B buffer, and eluted with the B buffer containing 10% of dimethylsulfoxide (DMSO) and 0.5 M of NaCl. 5.5 ml of the eluted fraction was dialyzed against a 0.1 M NaCl-containing B buffer to obtain 5.2 ml of a purified enzyme solution. The purified MMP-9 standard product was confirmed to have a single band of 92 kDa by a protein staining by SDS electrophoresis, and further, it was confirmed to have an adequate gelatin decomposing activity by gelatinzymography (carried out in accordance with a method by Howard E. W. et al; Journal Biological Chemistry, Vol. 266, 13064-13069, 1991) and to have an adequate substrate decomposing activity by the after-mentioned measurement employing a fluorescent peptide substrate specific to MMP.
The inhibition activity against human MMP-9 was measured by the following method in accordance with the method by C. G. Knight et al (FEBS Letters, Vol, 296, 263-266, 1992) employing a fluorescent peptide substrate (7-methoxycoumarin-4-yl)Acetyl-Pro-Leu-Gly-Leu-(3-[2,4-dinitrophenyl]—Ala—Arg-NH2, Code 3163-VC, manufactured by Peptide Institute, Inc.
Further, as the case requires, commercially available human MMP-9 purified enzyme (No. YU-18003, manufactured by Kabushiki Kaisha Yagai Chuo Kenkyusho; used in a final concentration of from 0.0125 to 0.025 unit/ml, No. CC079, manufactured by Chemicon International, Inc.; used in a final concentration of 0.2 μg/ml) was used for the tests. […]

[2] = compounds of the formula (I), 1st measurement, read-out: MMP-9 inhibition activities IC50, 1st
[3] = compounds of the formula (I), 2nd measurement, read-out: MMP-9 inhibition activities IC50, 2nd
[4] = compounds of the formula (I), average of 1st and 2nd (or single measurement), read-out: MMP-9 inhibition activities IC50, Average
[5] = intermediates, compounds of the formula (IV), 1st measurement, read-out: MMP-9 inhibition activities IC50, 1st
[6] = intermediates, compounds of the formula (IV), 2nd measurement, read-out: MMP-9 inhibition activities IC50, 2nd
[7] = intermediates, compounds of the formula (IV), average of 1st and 2nd (or single measurement), read-out: MMP-9 inhibition activities IC50, Average

T1 sequence (P14780 107-707 limits assumed): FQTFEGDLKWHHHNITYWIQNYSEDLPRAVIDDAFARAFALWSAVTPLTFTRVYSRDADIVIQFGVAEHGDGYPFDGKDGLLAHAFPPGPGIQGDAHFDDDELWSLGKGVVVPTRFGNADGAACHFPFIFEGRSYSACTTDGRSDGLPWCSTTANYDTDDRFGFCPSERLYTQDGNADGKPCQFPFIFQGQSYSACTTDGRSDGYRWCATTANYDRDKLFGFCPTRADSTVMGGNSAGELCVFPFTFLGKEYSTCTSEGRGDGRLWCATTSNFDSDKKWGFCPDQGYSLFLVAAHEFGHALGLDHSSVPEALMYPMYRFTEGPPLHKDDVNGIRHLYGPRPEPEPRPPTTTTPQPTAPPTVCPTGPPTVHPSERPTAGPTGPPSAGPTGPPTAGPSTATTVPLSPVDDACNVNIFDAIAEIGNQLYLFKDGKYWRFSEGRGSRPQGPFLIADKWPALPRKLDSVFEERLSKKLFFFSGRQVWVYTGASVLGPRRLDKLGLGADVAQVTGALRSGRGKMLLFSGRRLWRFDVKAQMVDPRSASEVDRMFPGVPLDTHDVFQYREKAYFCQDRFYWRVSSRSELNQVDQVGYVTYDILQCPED

Row | SMILES | IC50 [1, 2] | IC50 [1, 3] | IC50 [1, 4] | melting point | IC50 [1, 5] | IC50 [1, 6] | IC50 [1, 7]
1 | NNC(=C[N+](=O)[O-])Nc1ccc(F)cc1 [compound 53] | 22.6 µM | 29.3 µM | 26 µM | 183.5 °C (dec.) | – | – | –
2 | CSC(=C[N+](=O)[O-])Nc1ccc2c(c1)C(=O)CO2 [Intermediate 52] | – | – | – | 221 to 222 °C (dec.) | 61.5 µM | 50.4 µM | 56 µM
3 | CNC(=C[N+](=O)[O-])NNc1cc(C(F)(F)F)cc(OCc2cccnc2)n1 [compound 123] | 13.9 µM | 12.4 µM | 13.2 µM | 131 °C (dec.) | – | – | –
4 | CSC(=C[N+](=O)[O-])Nc1ccc(F)cc1 [Intermediate 21] | – | – | – | 156 °C | 31.6 µM | 54.4 µM | 43 µM
5 | CNC(=C[N+](=O)[O-])NNc1nc(-c2ccccc2)nc2ccccc12 [compound 148] | 33.5 µM | 21.7 µM | 27.6 µM | 272 °C (dec.) | – | – | –
6 | CNC(=C[N+](=O)[O-])NNc1c(Cl)cncc1Cl [compound 186] | 12.3 µM | – | 12.3 µM | 197 °C (dec.) | – | – | –
7 | CCOC(=O)c1ccc(NC(=C[N+](=O)[O-])NN)cc1 [compound 74] | 49.6 µM | 49.4 µM | 49.5 µM | 155 °C (dec.) | – | – | –
8 | CNC(=C[N+](=O)[O-])NNc1cc(C(F)(F)F)cc(OCCSc2ccccc2)n1 [compound 195] | 11.6 µM | – | 11.6 µM | 170 °C (dec.) | – | – | –
9 | CNC(=C[N+](=O)[O-])NN=Cc1ccc(C(F)(F)F)cc1 [compound 166] | 7.8 µM | – | 7.8 µM | 188 to 189 °C | – | – | –
10 | Cc1cc(C)c(S(C)(=O)=O)c(NNC(=C[N+](=O)[O-])NS(C)(=O)=O)n1 [compound 202] | 6.3 µM | – | 6.3 µM | 170 °C (dec.) | – | – | –
11 | CNC(=C[N+](=O)[O-])NNc1ccc(OC(F)(F)F)cc1 [compound 95] | 26.7 µM | 27 µM | 26.9 µM | 176 to 177 °C (dec.) | – | – | –
12 | COc1cccc(NC(=C[N+](=O)[O-])NN)c1 [compound 52] | 21.6 µM | 30.2 µM | 25.9 µM | 144 °C | – | – | –
13 | CNC(=C[N+](=O)[O-])NNc1cc(C(F)(F)F)nc(C(F)(F)F)c1 [compound 99] | 20.5 µM | 30 µM | 25.3 µM | 180 to 181 °C (dec.) | – | – | –
14 | CSC(=C[N+](=O)[O-])Nc1ccc2cn[nH]c2c1 [Intermediate 55] | – | – | – | 214 to 216 °C | 32.5 µM | 25.5 µM | 29 µM
15 | CNC(=C[N+](=O)[O-])NNc1cccc(C(F)(F)F)n1 [compound 168] | 7.1 µM | 7.3 µM | 7.2 µM | 197 °C (dec.) | – | – | –
16 | NNC(=C[N+](=O)[O-])NS(=O)(=O)c1ccccc1 [compound 156] | 38.3 µM | 41.8 µM | 40.1 µM | 210 °C (dec.) | – | – | –
17 | CSC(=C[N+](=O)[O-])Nc1c(C)nn(C)c1C [Intermediate 54] | – | – | – | 184 to 188 °C | 38.7 µM | 33.9 µM | 36.3 µM
18 | CNC(=C[N+](=O)[O-])NNc1nc2ccccc2s1 [compound 132] | 1.2 µM | 2.4 µM | 1.8 µM | 158 °C (dec.) | – | – | –

Row | SMILES | IC50 [1, 2] | IC50 [1, 3] | IC50 [1, 4] | melting point | IC50 [1, 5] | IC50 [1, 6] | IC50 [1, 7]
19 | CNC(=C[N+](=O)[O-])NNS(=O)(=O)c1cccc2ccccc12 [compound 150] | 14.8 µM | 11.4 µM | 13.1 µM | 168 °C (dec.) | – | – | –
20 | CNC(=C[N+](=O)[O-])NNS(=O)(=O)c1ccccc1 [compound 109] | 20.8 µM | 26.9 µM | 23.9 µM | 169 to 170 °C (dec.) | – | – | –
21 | NNC(=C[N+](=O)[O-])NC1Cc2ccccc2C1 [compound 112] | 38.2 µM | 30.9 µM | 34.6 µM | 193 to 197 °C (dec.) | – | – | –
22 | CNC(=C[N+](=O)[O-])NNc1c([N+](=O)[O-])c(C)nn1C [Compound No. 30] | 11.3 µM | 17.5 µM | 14.4 µM | 164 °C (dec.) | – | – | –
23 | CCNC(=C[N+](=O)[O-])NN [compound 117] | 30 µM | 39.3 µM | 34.7 µM | 93.5 to 98.5 °C | – | – | –
24 | NNC(=C[N+](=O)[O-])NC1CC1 [compound 90] | 18.7 µM | 37.4 µM | 28 µM | 145 °C (dec.) | – | – | –
25 | CNC(=C[N+](=O)[O-])NN=Cc1ccc(C)cc1 [compound 137] | 17.7 µM | 37.1 µM | 27.4 µM | 172 °C (dec.) | – | – | –
26 | NNC(=C[N+](=O)[O-])NCc1ccc(C(F)(F)F)cc1 [compound 78] | 44.1 µM | 36 µM | 40.1 µM | 162 °C | – | – | –
27 | CNC(=C[N+](=O)[O-])NNc1ccc(Cl)cn1 [compound 172] | 0.82 µM | 1.1 µM | 0.96 µM | 206 °C (dec.) | – | – | –
28 | CNC(=C[N+](=O)[O-])NNc1cc(C(F)(F)F)cc(OCC2CCCO2)n1 (centres unmarked) [compound 129] | 11.8 µM | 6.7 µM | 9.3 µM | 97 to 99 °C | – | – | –
29 | CNC(=C[N+](=O)[O-])NNc1nc(OC)cc(OC)n1 [compound 105] | 14.2 µM | 17 µM | 15.6 µM | 166 to 167 °C (dec.) | – | – | –
30 | CNC(=C[N+](=O)[O-])NNc1cc(C(F)(F)F)cc(OCCN2CCOCC2)n1 [compound 188] | 6.2 µM | – | 6.2 µM | 166 °C (dec.) | – | – | –
31 | Cc1ccc(NC(=C[N+](=O)[O-])NN)cc1 [compound 48] | 20.6 µM | 18.2 µM | 19.4 µM | 191 °C (dec.) | – | – | –
32 | CNC(=C[N+](=O)[O-])NNc1cc(C(F)(F)F)cc(OCCCc2cccnc2)n1 [compound 119] | 28 µM | 23.4 µM | 25.7 µM | 149 °C (dec.) | – | – | –
33 | CNC(=C[N+](=O)[O-])NNc1cc(C(F)(F)F)cc(C)n1 [compound 131] | 2 µM | 3 µM | 2.5 µM | 165 °C (dec.) | – | – | –
34 | COCCNC(=C[N+](=O)[O-])NNc1cc(C(F)(F)F)cc(Cl)n1 [compound 160] | 9.4 µM | – | 9.4 µM | 175 to 178 °C (dec.) | – | – | –
35 | CSC(=C[N+](=O)[O-])NS(=O)(=O)c1ccc2ccccc2c1 [Intermediate 61] | – | – | – | 205 °C (dec.) | 8.2 µM | – | 8.2 µM
36 | CNC(=C[N+](=O)[O-])NNc1ccc(OC)cc1 [compound 17] | 43.8 µM | 28.8 µM | 36.3 µM | 168 °C (dec.) | – | – | –
